Results on one compound are retold here after ChEMBL document CHEMBL2073874, “The multidrug resistance transporter ABCG2 (breast cancer resistance protein 1) effluxes Hoechst 33342 and is overexpressed in hematopoietic stem cells” (Clin Cancer Res, 2002).

Each structure is given as a SMILES string.

For the series, the target named is T1, Broad substrate specificity ATP-binding cassette transporter ABCG2 (Homo sapiens, UniProt Q9UNQ0).
T1 sequence (Q9UNQ0 whole entry): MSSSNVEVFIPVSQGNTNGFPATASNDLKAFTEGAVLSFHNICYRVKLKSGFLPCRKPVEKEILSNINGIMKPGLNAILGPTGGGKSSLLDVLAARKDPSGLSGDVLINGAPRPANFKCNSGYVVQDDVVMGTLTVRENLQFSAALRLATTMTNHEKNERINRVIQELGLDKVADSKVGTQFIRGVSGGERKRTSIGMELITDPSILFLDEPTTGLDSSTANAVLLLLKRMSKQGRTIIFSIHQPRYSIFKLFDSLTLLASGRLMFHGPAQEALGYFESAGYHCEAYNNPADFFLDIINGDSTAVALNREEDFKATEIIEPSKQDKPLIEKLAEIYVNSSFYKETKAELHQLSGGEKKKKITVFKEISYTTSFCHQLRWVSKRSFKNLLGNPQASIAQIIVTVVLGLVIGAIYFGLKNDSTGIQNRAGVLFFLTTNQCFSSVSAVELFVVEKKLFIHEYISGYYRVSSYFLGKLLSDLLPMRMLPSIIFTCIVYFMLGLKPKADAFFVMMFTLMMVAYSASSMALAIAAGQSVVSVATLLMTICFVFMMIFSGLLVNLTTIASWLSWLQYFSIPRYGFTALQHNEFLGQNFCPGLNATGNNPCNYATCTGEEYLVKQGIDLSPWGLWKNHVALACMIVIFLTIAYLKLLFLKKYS
Nature of the series: TP_TRANSPORTER: efflux in BCRP-expressing MCF-7 cells. The series is classed as functional, cell-based. The conditions noted are these: mcf7.

Consider `CCOc1ccc(-c2nc3cc(-c4nc5cc(N6CCN(C)CC6)ccc5[nH]4)ccc3[nH]2)cc1`, for which the Activity entry is “substrate [+]”.
